These results are taken from patent US4183935A, “Bispidine derivatives, their preparation, and drugs containing same” (priority 1977, dated 1980).

What all share (type): in vivo, rats (Sprague Dawley)
Series [1] in a line: toxic effect: dose at which first toxic symptoms such as cyanosis or changes in ECG occur. To be noted: for Toxic effect: Dose (dose producing a toxic effect): first toxic symptoms such as cyanosis or changes in ECG; for selectivity ratio: rat, in vivo, po. As to the method:
(§1) To determine their anti-arrhythmic activity, the substances were administered orally to rats (Sprague Dawley, weight 200-250 g) 45 minutes before starting a thiobutabarbital narcosis (100 mg/kg administered intraperitoneally). Aconitine was used to produce arrhythmias, and was infused intravenously 60 minutes after administration of the active substance (dosage rate 0.005 mg/kg per minute). In the untreated animals, arrhythmias manifest themselves after an average of 3.32 minutes, and their occurrence can be delayed by anti-arrhythmic agents, the delay being dependent on the dose. The ED50% is the does which increases by 50% the duration of infusion up to the occurrence of arrhythmias. R.E. is the relative effect, based on quinidine.ident.1.00. The maximum effect is that achieved by administering the maximum tolerated dose. .increment.% indicates the percentage by which the duration of the aconitine infusion can be increased. R.M.E. is the relative maximum effectiveness, based on quinidine.ident.1.00. The dose producing a toxic effect indicates the amount (in mg/kg) at which the first toxic symptoms such as cyanosis or changes in ECG occur. Q is the quotient of the toxic dose and the ED50%.

For series [2], the system named is arrhythmias produced by aconitine. Put plainly: animal or person. To be noted: for ED50: Rattus norvegicus, po, read-out: Effective dose ED50% (dose which increases by 50% the duration of infusion up to the occurrence of arrhythmias); for R.E. (relative effect, based on quinidine = 1.00): from ED50%; for R.M.E. (relative maximum effectiveness, based on quinidine = 1.00): from maximum effect; for Maximum effect: Δ% (percentage by which the duration of the aconitine infusion can be increased): rat, oral, at the maximum tolerated dose. As to the method:
as §1

A short description of a further series: in vivo. Conditions: in vivo; rat, oral; dose at which the maximum effect is achieved; read-out: Maximum effect: Dose (maximum tolerated dose). The protocol:
as §1

The mark [3] stands for this setting: toxic dose / ED50%, read-out: Q (quotient of the toxic dose and the ED50%).

Structures can show the parent of a compound that is named as a salt. Where two headings read alike, the source gives them in different places.

As for `Clc1ccc(CN2CC3CC(CN(Cc4ccccc4)C3)C2)cc1Cl` [H Cl Cl 0, N-Benzyl-N'-(3,4-dichlorobenzyl)-bispidine fumarate], in series [1], the “Toxic effect: Dose (dose producing a toxic effect)” value (“Toxic effect: Dose” for short) came to 464 mg/kg. In series [1] (setting [3]), the selectivity ratio was found to be 29.7. In series [2], the ED50 worked out at 15.6 mg/kg; the “R.E. (relative effect, based on quinidine = 1.00)” value is on record as 2.74; the “R.M.E. (relative maximum effectiveness, based on quinidine = 1.00)” value was 2.13; the “Maximum effect: Δ% (percentage by which the duration of the aconitine infusion can be increased)” value is recorded as 283%. In addition, in “in vivo”, the MTD turned out to be 215 mg/kg.

As for `C=C[C@H]1C[N@@]2CC[C@H]1C[C@@H]2[C@@H](O)c1ccnc2ccc(OC)cc12` [Quinidine, reference compound], in series [1], the “Toxic effect: Dose” value was 464 mg/kg and the selectivity ratio stood at 10.9. In addition, in series [2], the ED50 amounted to 42.7 mg/kg; the “R.E. (relative effect, based on quinidine = 1.00)” value came out at 1.00; the “R.M.E. (relative maximum effectiveness, based on quinidine = 1.00)” value is given as 1.00; the “Maximum effect: Δ% (percentage by which the duration of the aconitine infusion can be increased)” value was 133%. Besides, the MTD in “in vivo” is 215 mg/kg.

Take `Clc1cccc(CN2CC3CC(CN(Cc4ccccc4)C3)C2)c1` [H Cl H 0, N-benzyl-N'-(3-chlorobenzyl)-bispidine fumarate]: the “Toxic effect: Dose” value in series [1] was found to be 100 mg/kg. The selectivity ratio in series [1] (setting [3]) worked out at 6. Moreover, in series [2], the ED50 amounted to 16.6 mg/kg; the “R.E. (relative effect, based on quinidine = 1.00)” value is on record as 2.57; the “R.M.E. (relative maximum effectiveness, based on quinidine = 1.00)” value is on record as 0.92; the “Maximum effect: Δ% (percentage by which the duration of the aconitine infusion can be increased)” value came out at 123%. Moreover, in “in vivo”, the MTD is 46.4 mg/kg.

Turning to `FC(F)(F)c1cccc(CN2CC3CC(CN(Cc4ccccc4)C3)C2)c1` [H CF3 H 0, N-Benzyl-N'-(3-trifluoromethylbenzyl)-bispidine fumarate], the “Toxic effect: Dose” value in series [1] is given as 215 mg/kg. For the same compound, in series [2], the ED50 amounted to 25.4 mg/kg; the “R.E. (relative effect, based on quinidine = 1.00)” value is 1.68; the “R.M.E. (relative maximum effectiveness, based on quinidine = 1.00)” value stood at 1.82; the “Maximum effect: Δ% (percentage by which the duration of the aconitine infusion can be increased)” value is reported as 242%. The MTD in the series “in vivo” was found to be 100 mg/kg.

As to `c1ccc(CN2CC3CC(C2)CN(CC(c2ccccc2)c2ccccc2)C3)cc1` [C6 H5 H H 1, N-benzyl-N'-2,2-diphenylethylbispidine fumarate x H2 O], the “Toxic effect: Dose” value in series [1] is given as 100 mg/kg. Besides, in series [1] (setting [3]), the selectivity ratio was determined as 7.7. Also, in series [2], the ED50 amounted to 13 mg/kg; the “R.E. (relative effect, based on quinidine = 1.00)” value stood at 3.28; the “R.M.E. (relative maximum effectiveness, based on quinidine = 1.00)” value is listed as 1.53; the “Maximum effect: Δ% (percentage by which the duration of the aconitine infusion can be increased)” value amounted to 203%. In addition, the MTD in the series “in vivo” came out at 46.4 mg/kg.

Take `c1ccc(CN2CC3CC(C2)CN(C(c2ccccc2)c2ccccc2)C3)cc1` [C6 H5 H H 0, N-Benzyl-N'-benzhydryl-bispidine fumarate]: the “Toxic effect: Dose” value in series [1] is reported as 464 mg/kg. Also, in series [1] (setting [3]), the selectivity ratio came out at 22.8. Also, in series [2], the ED50 is 20.4 mg/kg; the “R.E. (relative effect, based on quinidine = 1.00)” value is reported as 2.09; the “R.M.E. (relative maximum effectiveness, based on quinidine = 1.00)” value is 1.54; the “Maximum effect: Δ% (percentage by which the duration of the aconitine infusion can be increased)” value is 205%. Also, in “in vivo”, the MTD stood at 215 mg/kg.

Take `Fc1ccc(CN2CC3CC(CN(Cc4ccccc4)C3)C2)cc1` [H H F 0, N-Benzyl-N'-(4-fluorobenzyl)-bispidine fumarate]: the “Toxic effect: Dose” value in series [1] was 215 mg/kg. The selectivity ratio in series [1] (setting [3]) turned out to be 10.6. Besides, in series [2], the ED50 worked out at 20.2 mg/kg; the “R.E. (relative effect, based on quinidine = 1.00)” value was 2.11; the “R.M.E. (relative maximum effectiveness, based on quinidine = 1.00)” value turned out to be 1.80; the “Maximum effect: Δ% (percentage by which the duration of the aconitine infusion can be increased)” value was determined as 240%. Besides, the MTD in the series “in vivo” stood at 100 mg/kg.
